Source: ChEMBL document CHEMBL1201862, “PubChem BioAssay data set” (2004)
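Each compound was tested at five concentrations against cells in 96-well plates for 48 hours. GI50: concentration for 50% inhibition of growth.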 The source made the active and inactive calls. Cut-off read from the data, not from the text of the source: active = GI50 up to about 1.1 µM and inactive = higher.

Tests used:
Assay in all cases: DTP human tumour cell line panel, 48 h
A549 = test system: A549
CAKI-1 = test system: CAKI-1
HCC 2998 = test system: HCC 2998
HL-60 = test system: HL-60
HOP-92 = test system: HOP-92
HT-29 = test system: HT-29
Hs-578T = test system: Hs-578T
LOX IMVI = test system: LOX IMVI
M14 = test system: M14
MOLT-4 = test system: MOLT-4
NCI-H23 = test system: NCI-H23
NCI-H460 = test system: NCI-H460
OVCAR-4 = test system: OVCAR-4
PC-3 = test system: PC-3
RXF 393 = test system: RXF 393
SF-268 = test system: SF-268
SNB-75 = test system: SNB-75
TK-10 = test system: TK-10
UACC-62 = test system: UACC-62
UO-31 = test system: UO-31

Row | Compound | GI50 (A549) | GI50 (CAKI-1) | GI50 (HCC 2998) | GI50 (HL-60) | GI50 (HOP-92) | GI50 (HT-29) | GI50 (Hs-578T) | GI50 (LOX IMVI) | GI50 (M14) | GI50 (MOLT-4) | GI50 (NCI-H23) | GI50 (NCI-H460) | GI50 (OVCAR-4) | GI50 (PC-3) | GI50 (RXF 393) | GI50 (SF-268) | GI50 (SNB-75) | GI50 (TK-10) | GI50 (UACC-62) | GI50 (UO-31)
1 | Cc1nn(C(=O)c2ccccc2O)c2c1C(c1ccc([N+](=O)[O-])cc1)SC(=N)N2 (stereo not given) | 1.47 µM (inactive) | 2.19 µM (inactive) | > 10 µM (inactive) | 4.27 µM (inactive) | 1.55 µM (inactive) | > 6.67 µM (inactive) | 0.676 µM (active) | 3.4 µM (inactive) | 7.19 µM (inactive) | 4.94 µM (inactive) | 2.79 µM (inactive) | 3.79 µM (inactive) | 3.56 µM (inactive) | > 9.53 µM (inactive) | 2.54 µM (inactive) | 6.68 µM (inactive) | 0.769 µM (active) | > 4.5 µM (inactive) | 2.03 µM (inactive) | 4.49 µM (inactive)
2 | COC(=O)CC1C=CC(C)(OC)OO1 (stereo not given) | 26 µM (inactive) | > 100 µM (inactive) | 59.7 µM (inactive) | 21 µM (inactive) | > 100 µM (inactive) | > 100 µM (inactive) | > 100 µM (inactive) | 48.3 µM (inactive) | > 100 µM (inactive) | > 10 µM (inactive) | > 100 µM (inactive) | 4.84 µM (inactive) | 97.9 µM (inactive) | > 100 µM (inactive) | 51.1 µM (inactive) | > 100 µM (inactive) | > 100 µM (inactive) | > 100 µM (inactive) | 49.9 µM (inactive) | > 100 µM (inactive)
3 | C/C(=N\NC(=S)N1CC2CCC(CC2)C1)c1nccs1 | 0.19 µM (active) | 0.634 µM (active) | 0.268 µM (active) | < 0.01 µM (active) | 0.646 µM (active) | 0.07 µM (active) | 6.1 µM (inactive) | 0.271 µM (active) | 0.249 µM (active) | < 0.0196 µM (active) | 0.434 µM (active) | 0.0483 µM (active) | 0.261 µM (active) | 0.228 µM (active) | 0.336 µM (active) | 0.294 µM (active) | 3.33 µM (inactive) | 0.975 µM (active) | 0.132 µM (active) | 0.129 µM (active)
4 | C=C(C)C1CC2(C)C(C)CC(O)CC2C(OC(=O)C=C(C)C)C1O (stereo not given) | 29.4 µM (inactive) | 43.3 µM (inactive) | 43.8 µM (inactive) | 23 µM (inactive) | 23.2 µM (inactive) | 24.4 µM (inactive) | 27.1 µM (inactive) | 55 µM (inactive) | 33.7 µM (inactive) | 18.1 µM (inactive) | 30.3 µM (inactive) | 22.8 µM (inactive) | 29.5 µM (inactive) | 37.6 µM (inactive) | 26.9 µM (inactive) | 23.7 µM (inactive) | 11.6 µM (inactive) | 49.2 µM (inactive) | 71.9 µM (inactive) | 24.4 µM (inactive)
5 | C1=C\CCCCN2C[C@H]3CCCC/C=C\CCCCN4CC[C@@H]([C@H](CCCCCC/1)C4)[C@H](C3)C2 | 2.09 µM (inactive) | 2.79 µM (inactive) | 0.51 µM (active) | 2.31 µM (inactive) | 2.38 µM (inactive) | 2.07 µM (inactive) | 2.05 µM (inactive) | 1.74 µM (inactive) |  | 1.49 µM (inactive) | 6.24 µM (inactive) | 1.76 µM (inactive) | 1.62 µM (inactive) | 3.12 µM (inactive) | 1.52 µM (inactive) | 2.65 µM (inactive) | 2.16 µM (inactive) | 2.28 µM (inactive) | 1.87 µM (inactive) | 1.66 µM (inactive)
6 | CC(=O)OCC12CN(C#N)C3C4COC(CC41)C1(C(=O)N(C)c4ccccc41)C32 (stereo not given) | 28.4 µM (inactive) | 17.3 µM (inactive) | 28.2 µM (inactive) | 11.2 µM (inactive) | 19.7 µM (inactive) | 33 µM (inactive) | 18.2 µM (inactive) | 20.6 µM (inactive) | 20.2 µM (inactive) | 7.48 µM (inactive) | 15.6 µM (inactive) | 31.3 µM (inactive) | 16.1 µM (inactive) | 33.2 µM (inactive) | 12.1 µM (inactive) | 29.1 µM (inactive) | 26.5 µM (inactive) | 20.4 µM (inactive) | 22.6 µM (inactive) | 13.3 µM (inactive)
7 | CC1=CC[C@](C)(O)[C@@]2(C)CC[C@H]3C(=C(C)C)C(=O)C[C@]3(C)C[C@H]12 | 46.8 µM (inactive) | 16 µM (inactive) | > 50 µM (inactive) | 6.55 µM (inactive) | > 50 µM (inactive) | 24.8 µM (inactive) | 38.2 µM (inactive) | 7.93 µM (inactive) | 24.8 µM (inactive) | 8.07 µM (inactive) | 34.1 µM (inactive) |  | > 50 µM (inactive) | 21.4 µM (inactive) | 30 µM (inactive) | > 50 µM (inactive) | 26.5 µM (inactive) | > 50 µM (inactive) | 11.9 µM (inactive) | 28.8 µM (inactive)
8 | COC(=O)c1ccccc1C1CN=NC12Cc1ccc3ccccc3c1C2=O (stereo not given) | 85.3 µM (inactive) | > 100 µM (inactive) | > 100 µM (inactive) | 8.43 µM (inactive) | 97.9 µM (inactive) |  | 94.4 µM (inactive) | > 100 µM (inactive) | > 100 µM (inactive) | 57.3 µM (inactive) |  | 80 µM (inactive) | > 100 µM (inactive) | > 100 µM (inactive) | 78.3 µM (inactive) | > 100 µM (inactive) | > 100 µM (inactive) | > 100 µM (inactive) | > 100 µM (inactive) | > 100 µM (inactive)
9 | C1CCCCC2(CCCCCCCCC3(CCC1)OCCO3)OCCO2 | > 100 µM (inactive) | > 100 µM (inactive) | > 100 µM (inactive) | > 100 µM (inactive) | > 100 µM (inactive) | > 100 µM (inactive) | > 100 µM (inactive) | > 100 µM (inactive) | > 100 µM (inactive) |  | > 100 µM (inactive) | > 100 µM (inactive) | > 100 µM (inactive) | > 100 µM (inactive) | > 100 µM (inactive) | > 100 µM (inactive) | > 100 µM (inactive) | > 100 µM (inactive) | > 100 µM (inactive) | < 0.01 µM (active)
10 | COc1cc(/C=C/C(=O)N[C@@H]2C(=O)N3[C@@H]2SC(C)(C)[C@@H]3C(=O)O)cc(OC)c1OC | > 100 µM (inactive) | > 100 µM (inactive) | > 100 µM (inactive) | > 100 µM (inactive) | > 100 µM (inactive) | > 100 µM (inactive) | > 100 µM (inactive) | > 100 µM (inactive) | > 100 µM (inactive) | > 100 µM (inactive) | > 100 µM (inactive) | > 100 µM (inactive) | > 100 µM (inactive) | > 100 µM (inactive) | > 100 µM (inactive) | > 100 µM (inactive) | > 100 µM (inactive) | > 100 µM (inactive) | > 100 µM (inactive) | > 100 µM (inactive)
